# Test results as given in paper PMC10374969, “SVCT2/SLC23A2 is a sodium-dependent urate transporter: functional properties and practical application” (The Journal of Biological Chemistry, 2023).
# Assays:
# Assay type in all cases: cell-based
# [1] = target: T1, human SVCT2 (SVCT2/SLC23A2) (Homo sapiens, UniProt Q9UGH3); assay: inhibition of [[…]-14C]-urate uptake into transfected HEK293 cells, mock subtracted
# T1 construct: full-length wild type, 650 aa, C-terminal EGFP tag (pEGFP-N1), transiently expressed in HEK293 cells
# [2] = target: T2, mouse Svct2 (Svct2/Slc23a2) (Mus musculus, UniProt Q9EPR4); assay: as above
# T2 construct: full-length, 648 aa, C-terminal EGFP tag (pEGFP-N1), transiently expressed in HEK293 cells
# [3] = target: T1, human SVCT2 (SVCT2/SLC23A2); assay: inhibition of [[…]-14C]-ascorbate uptake into transfected HEK293 cells
# T1 sequence (Q9UGH3 whole entry): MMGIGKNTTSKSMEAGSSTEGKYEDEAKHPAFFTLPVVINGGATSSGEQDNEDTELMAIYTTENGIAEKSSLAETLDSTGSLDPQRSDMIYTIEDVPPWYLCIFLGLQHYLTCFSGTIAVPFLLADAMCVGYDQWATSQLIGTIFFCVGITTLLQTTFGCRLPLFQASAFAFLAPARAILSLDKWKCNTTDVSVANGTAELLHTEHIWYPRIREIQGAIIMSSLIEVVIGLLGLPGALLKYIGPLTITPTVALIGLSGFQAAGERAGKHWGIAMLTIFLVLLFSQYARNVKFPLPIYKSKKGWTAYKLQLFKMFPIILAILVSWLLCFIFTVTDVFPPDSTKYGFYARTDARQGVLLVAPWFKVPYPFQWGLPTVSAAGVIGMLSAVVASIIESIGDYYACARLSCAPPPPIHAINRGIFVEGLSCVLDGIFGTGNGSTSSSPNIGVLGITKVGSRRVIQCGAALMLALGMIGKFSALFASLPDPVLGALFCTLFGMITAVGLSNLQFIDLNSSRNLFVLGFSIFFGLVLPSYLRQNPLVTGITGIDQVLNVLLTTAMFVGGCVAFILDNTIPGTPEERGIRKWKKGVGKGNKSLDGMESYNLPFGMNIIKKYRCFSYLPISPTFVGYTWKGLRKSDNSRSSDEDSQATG
# T2 sequence (Q9EPR4 whole entry): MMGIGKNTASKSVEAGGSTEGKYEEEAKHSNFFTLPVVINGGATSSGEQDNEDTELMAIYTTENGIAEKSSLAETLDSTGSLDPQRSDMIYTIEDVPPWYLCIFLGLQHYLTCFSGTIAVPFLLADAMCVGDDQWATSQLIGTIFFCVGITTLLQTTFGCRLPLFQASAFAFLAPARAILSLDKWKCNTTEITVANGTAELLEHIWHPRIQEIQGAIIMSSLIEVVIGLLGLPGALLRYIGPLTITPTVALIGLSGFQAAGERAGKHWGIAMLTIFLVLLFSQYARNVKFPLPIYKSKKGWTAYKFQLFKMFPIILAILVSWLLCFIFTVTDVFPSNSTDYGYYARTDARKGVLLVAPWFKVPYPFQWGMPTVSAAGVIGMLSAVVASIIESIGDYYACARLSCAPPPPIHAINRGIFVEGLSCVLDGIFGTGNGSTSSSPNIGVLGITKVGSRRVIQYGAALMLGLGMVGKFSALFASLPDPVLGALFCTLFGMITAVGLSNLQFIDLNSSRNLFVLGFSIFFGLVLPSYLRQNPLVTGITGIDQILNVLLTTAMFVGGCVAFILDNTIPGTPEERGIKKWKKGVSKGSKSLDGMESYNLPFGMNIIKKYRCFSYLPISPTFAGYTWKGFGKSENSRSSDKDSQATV
Structure (SMILES),IC50 [1] [µM],IC50 [2] [µM],inhibition at 500 µM [3] [%]
O=C1O[C@H]([C@@H](O)CO)C(O)=C1O [ascorbate],36.6,30.3,–
O=c1[nH]c(=O)c2[nH]c(=O)[nH]c2[nH]1 [urate],–,–,~20
